{
  "source": "patent US9981946B2",
  "about": "“Pyridine-substituted 2-aminopyridine protein kinase inhibitors” (CHIA TAI TIANQING PHARMACEUTICAL GROUP CO., LTD, priority 2014, dated 2018)",
  "tested_on": "human non-small cell lung carcinoma NCI-H2228 xenografts",
  "assay": "Therapeutic effect on NCI-H2228 xenografts in nude mice",
  "assay_type": "in vivo",
  "conditions": "D0-13 once a day; for Average tumor volume D0: D0 baseline at grouping",
  "method": "The following experimental method was used: Nude mice was inoculated subcutaneously with human non-small cell lung carcinoma NCI-H2228 cells, the mice were randomly grouped (D0) and administered until the tumor grew to 80-200 mm^3. Measuring the tumor volume, weighing the mice, and recording the data twice a week. Tumor volume (V) was calculated as:\n[…], wherein a and b represented length and width respectively.\nT/C(%)=(T-T0)/(C-C0)×100, wherein T, C respectively represented the tumor volume at the end of the experiment; T0, C0 respectively represented the tumor volume at the start of the experiment.\nWhen tumor regression was observed, T/C(%)=(T-T0)/T0×100, wherein T was the tumor volume at the end of the experiment; T0 was the tumor volume at the start of the experiment.\nIn the table: the solvent group (distilled water containing 0.1% Tween-80) was a control group, the compound of the treatment groups was formulated with distilled water containing 0.1% Tween-80.\nD0-20 represented administrating once a day from day 0 (D0) for consecutive 21 days; D0-13 represented administrating once a day from day 0 (D0) for consecutive 14 days.\nP value was obtained from student's t test compared with the control group.\nn was the number of mice, for the control group, the number of test mice n was 12, and n was 6 for the treatment group.",
  "data": [
    {"smiles": "COc1cc(N2CCNC[C@@H]2C)ncc1-c1cnc(N)c(O[C@H](C)c2c(Cl)ccc(F)c2Cl)c1", "note": "[compound of formula I, 5-((R)-1-(2,6-dichloro-3-fluorophenyl)ethoxy)-4′-methoxy-6′-((S)-2-methylpiperazin-1-yl)-3,3′-bipyridin-6-amine]", "values": [
      {"measurement": "Average tumor volume D0", "setting": "12.5 mg/kg PO", "value": 134.3, "unit": "mm^3"},
      {"measurement": "% T/C D21", "setting": "12.5 mg/kg PO, D21", "value": 22, "unit": "%"},
      {"measurement": "Average tumor volume D21", "setting": "12.5 mg/kg PO, D21", "value": 394.8, "unit": "mm^3"},
      {"measurement": "% Inhibition rate D21", "setting": "12.5 mg/kg PO, D21, 100-T/C(%)", "value": 78, "unit": "%"},
      {"measurement": "Average tumor volume D0", "setting": "25 mg/kg PO", "value": 131.0, "unit": "mm^3"},
      {"measurement": "Average tumor volume D21", "setting": "25 mg/kg PO, D21", "value": 21.7, "unit": "mm^3"},
      {"measurement": "% T/C D21", "setting": "25 mg/kg PO, D21, tumor regression, T/C=(T-T0)/T0×100", "value": "−83", "unit": "%"}
    ]}
  ]
}
